# Test results published in US20090035220A1, “HIGH THROUGHPUT SCREENING SYSTEM AND METHOD” (priority 2007, published 2009).
# Tested on: zebrafish larvae
# Assay: Ammonia excretion as an indicator of locomotor response to electrical stimulus
# Type: in vivo, Danio rerio
# Conditions: MS-222 0.10 mg/mL in media; 30 larvae (4 dpf) per well; stimuli 3 uA, 50 msec, 30 times per hour for 12 hours; colorimetric ammonia assay; FIG. 7
# Protocol: To create the graphs in the subsequent Examples, the initial conditions consisted of harvesting fertilized zebrafish eggs and placing them into embryo media and housed in an incubator with a constant temperature of 28.5° C. for the first several days of development, and throughout the course of experimentation. Embryo media consists of ultrapure water with 5 mM NaCl, 0.17 mM KCl, 0.33 mM CaCl2, 0.3 mm MgSO4 added. Embryo media was be used to make all final dilutions of test agents.
# After the first 24 hours of incubation, the zebrafish larvae were treated with pronase solution (2 mg/ml in Embryo Medium) for several minutes to remove the larvae from their chorion. […] The 96-well plates were maintained in incubators at 28.5° C. and were removed from incubators only for testing or to refresh media.
# Excretion of ammonia is a necessary consequence of protein breakdown. When proteins are converted to carbohydrates to provide energy, the amino group is removed and must be dealt with. In animals, the amino group is quickly oxidized to form ammonia. […] The concentration of ammonia excreted by the larvae was quantified by taking a sample of the media following the Examples and assaying it with a commercially available colorimetric assay kit (Ammonia Assay Kit #A1000, Sigma Biochemical) […]
smiles,measurement,value
CCOC(=O)c1cccc(N)c1.CS(=O)(=O)O [MS-222],"locomotor response of zebrafish to an electrical stimulus, based on excretion of ammonia",decreases the locomotor response
